Assay results from patent EP1182208A2, “Composition for DNA transfection” (Roche Diagnostics GmbH, priority 2000, dated 2002).

Assays:
BHK 21 Cl = assay: Luciferase transfection efficiency, serum-free suspension culture (Example 5); type: cell-based; conditions: soluble cell extract after 24 hours
Protocol: (§1) 1 mg of the compound obtained in Example 2 was dissolved in 500 µl sterile pure water (1 mg/ml) and stored at 4 °C. 90 mg polyethyleneimine, with a molecular weight of 25 kDa, was dissolved in sterile pure water (0.9 mg/ml), neutralized with HCl, sterile filtered and stored at room temperature.
(§2) 3 µl of a plasmid solution (1 mg/ml) encoding the luciferase gene was diluted in 1.5 ml culture medium and mixed. 2.25 µl compound (1 mg/ml) as described in Example 2 was added, mixed and followed by 8.3 µl PEI (0.9 mg/ml). After mixing and incubation for 10 minutes at room temperature, the mixture was transferred into 15 ml of various cells. Cells which were grown in serum-free suspension culture were transferred into fresh medium before adding the complexes. The luciferase activity was measured in the soluble cell extract after 24 hours incubation and expressed as relative light unit (RLU) per milligram protein.

Glioma C6 = assay: as above; type: cell-based; conditions: soluble cell extract after 24 hours
Protocol: as §1, §2

CHO dhfr- = assay: as above; type: cell-based; conditions: soluble cell extract after 24 hours
Protocol: as §1, §2

HEK293-EBNA cells [1] = assay: Cell viability of transfected HEK293-EBNA cells in serum-free suspension culture (Example 3); type: cell-based, Human; conditions: compound-mediated transfection; serum-free suspension culture of HEK293-EBNA cells
Protocol: (§3) 1 mg of the compound obtained in Example 2 was dissolved in 500 µl acetonitrile, diluted in 500 µl sterile pure water (1 mg/ml) and stored at 4 °C. 15 µl of a plasmid solution (1 mg/ml) encoding the soluble human tumor necrosis factor receptor p55 gene was transferred into 1.5 ml medium and mixed. Various amounts of the compound obtained in […] was added, mixed and after 10 minutes at room temperature, the mixture was transferred to 15 ml HEK293-EBNA cells in suspension.

[2] = as above; type: cell-based, Human; conditions: human, HEK293-EBNA cells in suspension, serum-free suspension culture
Protocol: as §3

HEK293 = assay: Luciferase transfection efficiency, serum-free suspension culture (Example 5); type: cell-based, Human; conditions: soluble cell extract after 24 hours
Protocol: as §1, §2

HEK293-EBNA = assay: as above; type: cell-based, Human; conditions: soluble cell extract after 24 hours
Protocol: as §1, §2

HEK293-EBNA cells [3] = assay: Transient transfection of HEK293-EBNA cells in serum-free suspension culture, expression of soluble TNF receptor p55 (Example 3); type: cell-based, Human
Protocol: as §3

HEK293-EBNA cells [4] = assay: Influence of antibiotics on transient transfection in HL medium, luciferase expression (Example 13); type: cell-based, Human; conditions: control without = 100, compound from Example 2 and PEI
Protocol: 1 mg of the compound from Example 2 was dissolved in 0.5 ml acetonitrile, mixed for 3-5 minutes at 37 °C, diluted in 0.5 ml sterile, pure water (1 mg/ml) and stored at 4 °C. 90 mg polyethelenimine (PEI), with a molecular weight of 25 kDa, were dissolved in sterile, pure water (0.9 mg/ml), neutralized with HCl, sterile filtered and stored at 4 °C. 3 µl of a plasmid solution (1 mg/ml) encoding the luciferase gene was added to 1.5 ml HL medium (containing 0.3% Primatone RL) and mixed. After 2 minutes incubation at room temperature, 2.25 µl of the compound from Example 2 (1mg/ml) was added and mixed, followed by 8.3 µl PEI (0.9 mg/ml). After mixing and incubation for 15-30 minutes at room temperature, the mixture was transferred into 15 ml of HEK293-EBNA cells containing different antibiotics. Cells which were grown in serum-free suspension culture in HL medium (containing 0.3% Primatone RL and different antibiotics) were transferred into fresh HL medium (containing 0.3% Primatone RL and different antibiotics), then adjusted to 5.5-6 x 10^6 cells/ml before adding the DNA complexes. The luciferase activity was measured in the soluble cell extract after 20-22 hours incubation time and expressed as relative light units per ml culture.

HEK293-EBNA cells [5] = assay: Effect of various compounds on DNA complex formation in DMEM/HAM F12 medium, luciferase expression (Example 11); type: cell-based, Human
Protocol: 1 mg of the compound from Example 2 was dissolved in 0.5 ml acetonitrile, mixed for 3-5 minutes at 37 °C, diluted in 0.5 ml sterile, pure water (1 mg/ml) and stored at 4 °C. 90 mg polyethelenimine (PEI), with a molecular weight of 25 kDa, were dissolved in sterile, pure water (0.9 mg/ml), neutralized with HCl, sterile filtered and stored at 4 °C.
Different growth promotion compounds were added to 1.5 ml DMEM/HAM F12 medium (without any compounds) and mixed. After 2-3 minutes, 3 µl of a plasmid solution (1 mg/ml) encoding the luciferase gene was added to the 1.5 ml […] and mixed. After 2 minutes incubation at room temperature, 2.25 µl of the compound from Example 2 (1mg/ml) was added and mixed, followed by 8.3 µl PEI (0.9 mg/ml). After mixing and incubation for 15-30 minutes at room temperature, the mixture was transferred into 15 ml of HEK293-EBNA cells. Cells which were grown in serum-free suspension culture in HL medium (containing 0.3% Primatone RL) were transferred into fresh HL medium (containing 0.3% Primatone RL) then adjusted to 5.5-6 x 10^6 cells/ml before adding the DNA complexes. The luciferase activity was measured in the soluble cell extract after 20-22 hours incubation time and expressed as relative light units per ml culture. […]

**Q.** Which Luciferase activity (BHK 21 Cl) does the source give for `CCCCCCCC/C=C\CCCCCCCC(=O)OC[C@H](COP(=O)(O)OCCNC(=O)CCSSC[C@@H](NC(=O)[C@H](NC(=O)CNC(=O)[C@@H](C)NC(=O)[C@H](NC(=O)[C@@H](CC(C)C)NC(=O)[C@@H](CCCCN)NC(=O)[C@H](NC(=O)[C@@H](CC(C)C)NC(=O)[C@H](NC(=O)[C@H](NC(=O)CNC(=O)[C@@H](CC(C)C)NC(=O)[C@H]1CCCN1C(=O)[C@@H](C)NC(=O)[C@@H](CC(C)C)NC(=O)[C@H](NC(=O)[C@@H](CO)NC(=O)[C@@H](Cc1c[nH]c2ccccc12)NC(=O)[C@H](NC(=O)[C@@H](CCCCN)NC(=O)[C@@H](CCCNC(=N)N)NC(=O)[C@@H](CCCCN)NC(=O)[C@@H](CCCNC(=N)N)NC(=O)[C@@H](CCC(N)=O)NC(=O)[C@H](N)CCC(N)=O)[C@H](C)CC)[C@H](C)CC)[C@H](C)O)[C@H](C)O)C(C)C)C(C)C)[C@H](C)CC)C(N)=O)OC(=O)CCCCCCC/C=C\CCCCCCCC` [Compound, retro-inverso dioleylmelittin] here?
**A.** Its Luciferase activity is 5.2 x 10^5 RLU/mg protein.

**Q.** And the Luciferase activity (Glioma C6)?
**A.** Its Luciferase activity is 5.8 x 10^6 RLU/mg protein.

**Q.** And the Luciferase activity (CHO dhfr-)?
**A.** Its Luciferase activity is 1.4 x 10^6 RLU/mg protein.

**Q.** And the cell toxicity effects (HEK293-EBNA cells [1])?
**A.** Its cell toxicity effects is “absence of detectable cell toxicity effects”.

**Q.** What about the viability at 1 µg/mL ([2]; Compound 1 µg/ml) of the same molecule?
**A.** The viability at 1 µg/mL was 90 to 95%.

**Q.** What about the viability at 2 µg/mL ([2]; Compound 2 µg/ml) of the same molecule?
**A.** The viability at 2 µg/mL was 90 to 95%.

**Q.** What about the viability at 4 µg/mL ([2]; Compound 4 µg/ml) of the same molecule?
**A.** Its viability at 4 µg/mL is 90 to 95%.

**Q.** What about the viability at 6 µg/mL ([2]; Compound 6 µg/ml) of the same molecule?
**A.** The viability at 6 µg/mL was 90 to 95%.

**Q.** What about the viability at 10 µg/mL ([2]; Compound 10 µg/ml) of the same molecule?
**A.** The viability at 10 µg/mL was 90 to 95%.

**Q.** And the Luciferase activity (HEK293)?
**A.** The Luciferase activity was 1.8 x 10^6 RLU/mg protein.

**Q.** What about the Luciferase activity (HEK293-EBNA) of the same molecule?
**A.** The Luciferase activity was 2.2 x 10^6 RLU/mg protein.

**Q.** And the TNFRp55 (HEK293-EBNA cells [3]; Compound 1 µg/ml)?
**A.** The TNFRp55 was 0.1 ng/mL.

**Q.** And the TNFRp55 (HEK293-EBNA cells [3]; Compound 2 µg/ml)?
**A.** Its TNFRp55 is 0.2 ng/mL.

**Q.** And the TNFRp55 (HEK293-EBNA cells [3]; Compound 4 µg/ml)?
**A.** The TNFRp55 was 2.5 ng/mL.

**Q.** What about the TNFRp55 (HEK293-EBNA cells [3]; Compound 6 µg/ml) of the same molecule?
**A.** Its TNFRp55 is 6.3 ng/mL.

**Q.** What about the TNFRp55 (HEK293-EBNA cells [3]; Compound 10 µg/ml) of the same molecule?
**A.** The TNFRp55 was 83 ng/mL.

**Q.** Which Luciferase activity (HEK293-EBNA cells [4]; antibiotic 2 µg/ml in HL medium with Primatone RL (0.3%)) does the source give for `C[C@H]1c2cccc(O)c2C(=O)C2=C(O)[C@]3(O)C(=O)C(C(N)=O)=C(O)[C@@H](N(C)C)[C@@H]3[C@@H](O)[C@@H]21` [Doxycycline] here?
**A.** Its Luciferase activity is 89%.

**Q.** For `CN[C@@H]1[C@@H](O)[C@@H](O[C@@H]2[C@@H](O)[C@H](O[C@H]3O[C@H]([C@@H](C)O)[C@@H](O)[C@H](O)[C@H]3N)[C@@H](N)C[C@H]2N)OC[C@]1(C)O` [Geneticin (G-418), Geneticin], which Luciferase activity (HEK293-EBNA cells [4]; antibiotic 250 µg/ml in HL medium with Primatone RL (0.3%)) is on record?
**A.** Its Luciferase activity is 93%.

**Q.** What does the source list for `NC(=O)CC[C@H](N)C(=O)O` [Glutamine 200 mM, Glutamine]?
**A.** % Increase (HEK293-EBNA cells [5]; additive 1:100, Primatone RL was set as 100 %): 13%; Luciferase activity (HEK293-EBNA cells [5]; additive dilution 1:100 in DMEM/HAM F12, compound from Example 2 and PEI): 1.06 RLU x 10^9/ml

**Q.** Which Luciferase activity (HEK293-EBNA cells [4]; antibiotic 50 µg/ml in HL medium with Primatone RL (0.3%)) does the source give for Gentamycin here?
**A.** The Luciferase activity was 80%.
